Assay results from PMC6333787, “Peptidyl-prolyl isomerase-B is involved in Mycobacterium tuberculosis biofilm formation and a generic target for drug repurposing-based intervention” (NPJ Biofilms and Microbiomes, 2019).
“Also recorded” adds a separate entry of the source. Where two headings read alike, the source gives them in different places.

Experiments:
[1] = system: M. smegmatis (Ms_VC and Ms_PpiB); type: cell-based, Mycobacterium smegmatis
[2] = system: M.smegmatis expressing M.tb PpiB (Ms_PpiB) and vector control (Ms_VC); type: cell-based, Mycobacterium smegmatis
E. coli = conditions: cited from earlier work
Description: Acarbose is widely used for the management of type 2 Diabetes mellitus as well. […] There are several bacteria that are invol ...

[3] = system: M. smegmatis (Ms_VC and Ms_PpiB); type: cell-based, Mycobacterium smegmatis; remark: listed apart in the source
M.tb PpiB = experiment: Surface plasmon resonance (SPR); type: binding, Mycobacterium tuberculosis; conditions: rPpiB immobilised on CM5 sensor chip, PBS, association 300 s, dissociation 150 s
[4] = system: M. smegmatis (Ms_VC and Ms_PpiB); type: cell-based, Mycobacterium smegmatis; conditions: for bacteriostatic effect at 100 µg/ml: up to 120 h; for Concentration up to which effect is bacteriostatic: 120 h as compared to 72 h; for bacteriostatic or bactericidal effect: M. smegmatis, summary statement
[5] = system: M. smegmatis (Ms_VC and Ms_PpiB); type: cell-based, Mycobacterium smegmatis; remark: listed apart in the source
[6] = cited from earlier work
Description: Our next step was to identify suitable drug(s) that could act as an inhibitor of PpiB protein. Developing new drugs is a long process taking about 10–15 years. Drug repurposing is gaining popularity as it allows bypassing of the cumbersome clinical trial of drugs for which the parameters of toxicity and effectiveness have already been tested and approved.

[7] = system: M. smegmatis (Ms_VC and Ms_PpiB); conditions: general statement, no reference given; cited from earlier work
[8] = system: M. smegmatis (Ms_VC and Ms_PpiB); conditions: general statement, no reference given; cited from earlier work; remark: listed apart in the source
P.aeruginosa = conditions: cited from earlier work
Description: The presence of extracellular M.tb within biofilm like structure inside lung lesions of M.tb infected guinea pigs undergoing antibiotic treatment points to the possibility of biofilm formation within the host tissues.[7] Peptidyl-prolyl isomerases (PPIase), popularly known as cyclophilins, are ubiquitously expressed protein foldases which aid in protein folding or refolding by ...

C.parapsilosis = conditions: cited from earlier work
Prokaryotic cyclophilins = conditions: cited from earlier work
M.tuberculosis H37Rv = type: cell-based, Mycobacterium tuberculosis
Candida albicans = conditions: cited from earlier work

## C[C@H]1O[C@H](O[C@H]2[C@H](O)[C@@H](O)[C@@H](O[C@H]3[C@H](O)[C@@H](O)C(O)O[C@@H]3CO)O[C@@H]2CO)[C@H](O)[C@@H](O)[C@@H]1N[C@H]1C=C(CO)[C@@H](O)[C@H](O)[C@H]1O (stereo partly drawn) [Acarbose, acarbose]
[1]; co-treatment, isoniazid/ethambutol
  reduction in dosage of anti-TB drugs: at least two-fold
[2]
  biofilm formation, induced PpiB tet+: significant decrease in biofilm formation
[2]; 500 µg/ml and above
  biofilm formation, acarbose 500 µg/ml and above: inhibited biofilm formation
[2]; Ms_PpiB uninduced by anhydrotetracycline (PpiB tet-)
  biofilm formation, uninduced PpiB tet-: did not exhibit any significant change
[2]; Ms_VC, presence or absence of agent
  biofilm formation, Ms_VC cells: only basal levels of biofilm formation
[2]; acarbose 500 and 1000 µg/ml, Ms_PpiB, compared to no acarbose, 7 days
  biofilm formation, 500 and 1000 µg/ml: significant inhibition in the biofilm formation
[2]; acarbose at lower concentrations, VC tet- and PpiB tet-, "Hormetic effect"
  biofilm formation, lower concentrations: transient increase in biofilm formation
[2]; lower concentration (upto 100 µg/ml)
  biofilm formation, acarbose upto 100 µg/ml: increase in biofilm formation
E. coli
  maltose importer block and growth of E. coli: block maltose importer and consequently suppress growth of E. coli
[3]; 10 mg/ml, data not shown
  viability, acarbose 10 mg/ml: no significant effect
[3]; M. smegmatis expressing PpiB, alamar blue
  Threshold concentration at which viability was not significantly affected: 1000 µg/mL
[3]; up to 1000 µg/ml, Ms_VC or Ms_PpiB
  viability, acarbose up to 1000 µg/ml: no effect
M.tb PpiB
  SPR interaction: interact with M.tb PpiB in a dose dependent manner and bind with high affinity
[4]
  bacteriostatic effect at 100 µg/ml: bacteriostatic effect
  Concentration up to which effect is bacteriostatic: ≤ 1000 µg/mL
  bacteriostatic or bactericidal effect: bacteriostatic effect; also recorded: bacteriostatic activity
[5]; acarbose, data not shown
  efficacy in decreasing the dosage of ethambutol: insignificant

## Cc1ccc(-c2cc(C(F)(F)F)nn2-c2ccc(S(N)(=O)=O)cc2)cc1 [Celebrex]
[6]
  repurposing outcome in patients: decreasing polyp formation in colon cancer patients

## CC[C@@H](CO)NCCN[C@@H](CC)CO [Ethambutol, ethambutol]
[7]
  dosage of ethambutol, normally effective: 1 µg/mL
[5]
  dosage of ethambutol with cyclosporine-A: 4 µg/mL
[5]; Fig. 4e, control
  dosage of ethambutol, control without GaNP: 16 µg/mL
[5]; Fig. 4d, PpiB tet+, 68 h
  dosage of ethambutol, absence of cyclosporine-A: 16 µg/mL
[5]; GaNP 50 µg/ml, Fig. 4e
  dosage of ethambutol with GaNP: 1 µg/mL

## NNC(=O)c1ccncc1 [Isoniazid, isoniazid]
[1]
  dosage of isoniazid with cyclosporine-A: 32 µg/mL
  fold decrease in dosage of isoniazid: 2–4 fold
[1]; Fig. 4a, PpiB tet+ biofilm, 7 days then 68 h isoniazid
  dosage of isoniazid, absence of cyclosporine-A: 64 µg/mL
[1]; Fig. 4b, PpiB (tet+), 68 h
  dosage of isoniazid, absence of acarbose: 64 µg/mL
[1]; GaNP 50 µg/ml, Fig. 4c, 68 h
  dosage of isoniazid with GaNP: 16 µg/mL
[1]; acarbose 500 µg/ml, Fig. 4b, PpiB (tet+), 68 h
  dosage of isoniazid with acarbose: 32 µg/mL
[8]
  dosage of isoniazid, normally effective: 16 µg/mL

## CCN(CC)CCCC(C)Nc1ccnc2cc(Cl)ccc12 (stereo not drawn) [chloroquine]
[6]
  repurposing outcome in patients: improving outcome of cancer drug Erlotinib

## CN(C)C(=N)N=C(N)N [metformin]
[6]
  repurposing outcome in patients: lowering morbidity of TB patients

## O=C(Nc1ccc([N+](=O)[O-])cc1Cl)c1cc(Cl)ccc1O [niclosamide]
P.aeruginosa
  effect against P.aeruginosa biofilm: inhibitory effects against biofilms formed by P.aeruginosa

## cyclosporine-A
[1]
  reduction in dosage of anti-TB drugs: at least two-fold
[2]
  biofilm formation, 100 µg/ml: significant decrease (p < 0.05) in biofilm formation
  biofilm formation, 1000 µg/ml: complete inhibition of biofilm formation (p < 0.005)
  biofilm formation, Ms_VC cells: only basal levels of biofilm formation
  biofilm formation, induced PpiB tet+: significant decrease in biofilm formation
  biofilm formation, uninduced PpiB tet-: did not exhibit any significant change
C.parapsilosis
  synergy with antifungals against C.parapsilosis: acts synergistically to improve the efficacy of antifungals against C.parapsilosis
Prokaryotic cyclophilins
  affinity for prokaryotic cyclophilins: weak affinity
M.tuberculosis H37Rv
  biofilm formation in H37Rv, cyclosporine-A: significant reduction (Fig. 5a) in biofilm formation
  effect on H37Rv biofilm formation: disrupted M.tb H37Rv biofilm formation; also recorded: Suppressive effect
[3]
  Threshold concentration at which viability was not significantly affected: 100 µg/mL
  viability, cyclosporine-A below 250 µg/ml: insignificant effect
Candida albicans
  combination with fluconazole against C.albicans biofilms: effective against biofilms formed by C.albicans
  sensitisation of C. albicans biofilm to antifungal drugs: sensitises drug-tolerant biofilm of Candida albicans to various antifungal drugs
  sensitivity of C.albicans to fluconazole: imparts sensitivity to C.albicans towards fluconazole
M.tb PpiB
  SPR interaction: interact with M.tb PpiB in a dose dependent manner and bind with high affinity
[4]
  bacteriostatic effect at 100 µg/ml: bacteriostatic effect
  Concentration up to which effect is bacteriostatic: ≤ 500 µg/mL
[4]; listed as cyclosporine A
  bacteriostatic or bactericidal effect: bacteriostatic activity
[4]; listed as cyclosporine-A
  bacteriostatic or bactericidal effect: bacteriostatic effect
[5]
  decrease in ethambutol dosage with cyclosporine-A: decreased four-fold
